Assay results as given in EP1714639A1, “Cosmetic compositions containing piperazine derivatives” (L'ORÉAL, priority 2005, dated 2006).

Experiments:
[1] = system: cellules musculaires striées humaines; test: nerve-muscle co-culture test (inhibition of muscle fibre contractions); assay type: cell-based; conditions: for inhibition at 10 µM / inhibition at 100 µM: 60 s incubation, contractions counted over 30 s, triplicate, read-out: % d'inhibition des contractions
Description: Les composés des Exemples 1 et 2 ont été testés sur un modèle de co-culture nerfs-muscles qui permet de recréer un arc moteur en innervant des cellules musculaires striées humaines avec des explants de moelle épinière et de ganglions rachidiens d'embryons de rat.
Des cellules musculaires humaines, issues de prélèvements de muscles striés de donneur sain, sont ensemencées dans des puits de 1,8 cm^2 de section (boîtes de culture de 24 puits). Après 10 jours de culture, ces cellules forment une monocouche et fusionnent. A ce stade, des explants de moelle épinière d'embryons de rat de 13 jours contenant les ganglions rachidiens sont déposées sur la culture.
La croissance des neurites est visible en dehors de l'explant de moelle épinière après un jour de culture. Les premières contractions des fibres musculaires sont observées après 5 à 6 jours de co-culture et après 3 semaines, toutes les fibres musculaires au voisinage des explants se contractent.
Le co-cultures sont utilisées après 21 jours, quand les fibres musculaires sont striées et possèdent des jonctions neuromusculaires différenciées matures.
Une fibre musculaire ayant des contractions régulières (au moins 60 contractions par minute) est alors sélectionnée dans trois puits de culture différents et le nombre de contractions est comptabilisé sur 30 secondes. Les composés testés, dilués dans le DMSO, sont ensuite incubés pendant 60 secondes dans ces puits, à la concentration de 10 µM pour le composé de l'Exemple 1 et de 10 et 100 µM pour le composé de l'Exemple 2. A la fin de l'incubation, le nombre de contractions est à nouveau comptabilisé sur 30 secondes. Le test est réalisé en triplicata.

[2] = system: canaux calciques de type L; test: binding test on L-type calcium channels ([3H](-) D 888 displacement, verapamil site); design: species or system rat; conditions: for % inhibition de la liaison: 1 µM in DMSO, [3H](-) D 888 0.5 nM, rat cerebral cortex homogenates, 60 min/22°C
Experimental: On a évalué la capacité des composés des Exemples 1, 4 et 5 (à 1 µM dans le DMSO) à inhiber par compétition la fixation d'[…] de canaux calciques de type L.
Les études sont réalisées à partir d'homogénats de cortex cérébral de rat (membranes isolées présentant à leur surface des canaux calciques de type L) selon la méthode décrite par Reynolds I.J. et al., 1986, J. Pharmacol. Exp. Ther., 237, p.731.
Les conditions expérimentales sont les suivantes :
D888 qui est le [^3H](-) desmethoxyverapamil sert de ligand spécifique radiomarqué et D600 qui est le chlorhydrate de (±)méthoxyvérapamil sert de molécule de référence.
La liaison spécifique d'un ligand (D888 marqué) aux récepteurs (canaux calciques de type L, site vérapamil) est définie comme la différence entre la liaison totale et la liaison non spécifique déterminée en présence d'un excès de ligand froid (non radioactif). Les résultats sont exprimés en pourcentage d'inhibition de la liaison spécifique du témoin en présence du composé testé.

[3] = anti-wrinkle activity in vivo

Structure (SMILES)	inhibition at 10 µM [1] [%]	inhibition at 100 µM [1] [%]	% inhibition de la liaison [2] [%]	further results
C(=Cc1ccccc1)CN1CCN(CCCc2ccccc2)CC1 [compound 1, 1-(3-phenyl-2-propenyl)-4-(3-phenylpropyl)-piperazine]	65	100	30	–
c1ccc(CCCN2CCN(CCc3ccccc3)CC2)cc1 [compound 2, 1-(2-phenylethyl)-4-(3-phenylpropyl)-piperazine]	50	100	–	inhibition de la liaison spécifique du témoin aux canaux calciques ([2]; similar test, concentration 50 µM): 50%
OCCCN1CCN(CCCc2ccccc2)CC1 [compound 4, 1-(3-hydroxpropyl) 4-(3-phenylpropyl)-piperazine]	–	–	22	–
CCN1CCN(CCCc2ccccc2)CC1 [compound 5, 1-ethyl 4-(3-phenylpropyl)-piperazine]	–	–	16	–
CN1C(=O)CN=C(c2ccccc2)c2cc(Cl)ccc21 [diazépam, reference compound]	–	–	–	contractions des fibres musculaires ([1]; earlier finding of the applicant in this model): inhibait les contractions des fibres musculaires; activité anti-rides [3]: démontrée in vivo
